{
  "source": "patent US7781580B2",
  "about": "“Stilbene derivatives as new cancer therapeutic agents” (Virginia Commonwealth University, priority 2007, dated 2010)",
  "test_system": "UCI101 cells",
  "assay": "cell cycle analysis (propidium iodide, FACScan), UCI101",
  "format": "cell-based",
  "procedure": "Cells were stained with propidium iodide and analyzed with FACScan. Both 5b at 3 μM and stilbene 4a at 30 nM induce a subG0/1 population that represents the dead population. At higher concentrations of either compound, nearly all cells are dead.\n(a) In vitro sensitivity of UCI101 cells toward three potential stilbene prodrugs, 5a-c, was tested in 96-well plates using Alamar Blue™ assays to determine cell growth inhibition. […] (b) 5b induces cell cycle change and apoptosis in UCI101 cells. […] A subG0/1 population, representing apoptotic cells, appeared along with a decrease of the G1/G2 ratio after cells were treated with 3 μM 5b. […] (c) Cells treated with stilbene 4a and 5b were stained with phospho-histone 3B, a mitotic marker. The positive signals of phospho-histone 3B were shown in green and nuclei were stained with DAPI in blue. […] (d) In vivo efficacy of 5b compared with stilbene 4a. Nude mice were injected with UCI101 ovarian cancer cells and treated with 7 doses of 5b,c or stilbene 4a every 2-3 days. Tumor volume was calculated and plotted against days.",
  "data": [
    {"smiles": "COc1cc(/C=C\\c2ccc(OC)c(N)c2)cc(OC)c1", "note": "[4a, (Z)-5-[2-(3,5-Dimethoxy-phenyl)-vinyl]-2-methoxy-phenylamine]", "values": [
      {"measurement": "cell cycle effect", "setting": "4a at 30, 100 nM, 5b at 1, 3, 10 μM", "value": "induced G2/M cell cycle arrest and accumulation of the subG1/0 population"},
      {"measurement": "concentration inducing a subG0/1 (dead) population", "setting": "24 hours", "value": 30, "unit": "nM"}
    ]}
  ]
}
